Test results published in patent publication US8242134B2, “Isoquinolinone derivatives as NK3 antagonists” (H. Lundbeck A/S, priority 2008, dated 2012).

Columns and labels:
human NK3 receptor = biological target: T1, human NK3 receptor (Homo sapiens, UniProt P29371); assay: NK3 receptor binding assay (SPA competition binding, 125I-NKB); details: read-out: Affinity (Ki/nM)
T1 construct: expressed in transfected cells
T1 sequence (P29371 1-465): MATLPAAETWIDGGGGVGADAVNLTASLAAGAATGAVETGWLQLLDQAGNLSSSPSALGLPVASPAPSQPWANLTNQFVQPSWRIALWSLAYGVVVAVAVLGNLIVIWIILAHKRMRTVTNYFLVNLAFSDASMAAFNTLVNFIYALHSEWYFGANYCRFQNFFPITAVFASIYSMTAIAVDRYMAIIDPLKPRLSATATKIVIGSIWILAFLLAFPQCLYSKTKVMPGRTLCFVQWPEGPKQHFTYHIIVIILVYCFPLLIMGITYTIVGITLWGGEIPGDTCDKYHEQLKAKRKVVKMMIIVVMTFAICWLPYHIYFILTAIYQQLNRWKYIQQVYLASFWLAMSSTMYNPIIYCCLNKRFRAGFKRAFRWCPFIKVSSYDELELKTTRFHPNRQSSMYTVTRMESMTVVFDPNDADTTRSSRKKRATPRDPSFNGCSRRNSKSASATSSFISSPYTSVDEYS
Method: Membrane preparation: BHK cells stably expressing the human NK3 receptor were seeded in harvesting plates in Dulbeccos MEM containing GlutaMax (862 mg/l), 1 mM sodium pyruvate, 10% fetal calf serum, 1% Pen/Strep, 1 mg/ml G418 and were grown at 34° C. in a humidified atmosphere containing 10% CO2. To increase receptor expression, 10 μM trichotatin A was added to the media 24 hours before harvest of the cells at a confluency of app 90%. Prior to the harvesting, the cells were washed twice with PBS without Mg^2+ og Ca^2+ and subsequently scrapped of in 10 ml PBS pr harvesting plate. The cells suspension were centrifuged at 1500×G in three minutes before resuspension in 15 mM Tris-HCl pH 7.5 buffer containing 2 mM MgCl2; 0.3 mM EDTA and 1 mM EGTA (buffer A). The cell suspension was homogenised and subsequently centrifuged at 40000×G in 30 minutes. The membrane-pellet was resuspended in buffer A containing 250 mM sucrose, aliquoted and stored at −80° C.
Affinity assay description: The assay was performed as a SPA-based competition-binding assay in a 50 mM Tris pH 7.4 assay buffer containing 120 mM NaCl, 3 mM MnCl2, 40 μg/ml bacitracin, 2 μg/ml Chymostatin, 1 μg/ml Phosphoramidon and 4 μg/ml Leupeptin. […] The assay plate was subsequently under agitation incubated for 90 min at RT.

[1] = cited from earlier work

SMILES	Ki (human NK3 receptor) [nM]	further results
Cc1c(C(=O)N[C@H](c2cccc(F)c2)C2CCC2)c2cccc(F)c2c(=O)n1[C@H]1CCOC1 [Example 4r, 8-Fluoro-3-methyl-1-oxo-2-(S)-tetrahydro-furan-3-yl-1,2-dihydro-isoquinoline-4-carboxylic acid [(S)-cyclobutyl-(3-fluoro-phenyl)-methyl]-amide]	170	–
Cc1c(C(=O)N[C@H](c2cccc(F)c2)C2CC2)c2cccc(F)c2c(=O)n1[C@@H]1CCNC1 [Example 5g, 8-Fluoro-3-methyl-1-oxo-2-(R)-1-pyrrolidin-3-yl-1,2-dihydro-isoquinoline-4-carboxylic acid [(S)-cyclopropyl-(3-fluoro-phenyl)-methyl]-amide]	180	–
CC(=O)N(C)C1(c2ccccc2)CCN(CCC[C@]2(c3ccc(Cl)c(Cl)c3)CCCN(C(=O)c3ccccc3)C2)CC1 [Osanetant, osanetant]	–	effect in clinical trials versus placebo ([1]; in particular on positive symptoms of psychosis): superior to placebo
CC[C@H](NC(=O)c1c(O)c(-c2ccccc2)nc2ccccc12)c1ccccc1 [Talnetant, talnetant]	–	effect on cognitive behaviour of schizophrenics in clinical trials ([1]; in vivo): ameliorate the cognitive behaviour of schizophrenics
